This is an account of results in ChEMBL document CHEMBL1132124 (Bioorg Med Chem Lett, 1999).

As usually defined, the pEC50 is the EC50 on a negative log10 scale, so that one unit is a factor of ten. High values mean a small EC50, low ones a large EC50. A word on the pIC50: it is the IC50 on a negative log10 scale, so that one unit is a factor of ten. A low value points to a high IC50.

SMILES strings stand for the structures. pEC50, pIC50: −log10 of the molar value.

The first assay addresses Glutamate NMDA receptor. Kind of assay: In vitro concentration eliciting half-maximal effect on [3H]-MK 801 radioligand binding to NMDA receptor. The class given is protein-complex assay.
For `O=C1CNCN1O`, the pEC50 is 5.36.
On the same count and under the same terms, under `C[C@@H]1CN(O)C(=O)[C@@H]1N` stands 5.02.

Tested on in the next assay: not listed separately
Description: In vitro maximal effect on [3H]-MK 801 binding to NMDA receptor as compared to a basal value of 100%.
Take `O=C1CNCN1O`: the ME was found to be 146%.
Still for that read-out and setting: then `N[C@H](CO)C(=O)O`, with 169%.
Compound `NCC(=O)O` had an ME of 159%.
On the same count and under the same terms, then `N[C@@H]1CONC1=O`, with 122%; and `C[C@@H]1CN(O)C(=O)[C@@H]1N`, with 18%.

For another assay, the target named is T1, Glutamate receptor ionotropic, NMDA 1 (Rattus norvegicus, UniProt P35439). Kind of assay: In vitro inhibitory activity to inhibit [3H]glycine binding to NMDA receptor.
As for `O=C1C(CO)NCN1O` (stereo not drawn), the pIC50 was 4.11.
For `CC1NCN(O)C1=O` (stereo not drawn), the pIC50 was 4.11.
Still for that read-out and setting: then `CC1NCC(=O)N1O` (stereo not drawn), with 4.08; and `C[C@@H]1CN(O)C(=O)[C@@H]1N`, with 5.73.

The target of another assay is T1, Glutamate receptor ionotropic, NMDA 1. Description: In vitro inhibitory activity to inhibit [3H]glycine binding to NMDA receptor; IA means inactive.
With `O=C1CCNCN1O`, the IC50 result was “Not Active”.
Same read-out and setting: then `NC1CCONC1=O` (stereo not drawn), with “Not Active”; and `CC1ONC(=O)C1N` (stereo not drawn), with “Not Active”; and `O=C1CCCN1O`, with “Not Active”.
Turning to `CC1NC(C)N(O)C1=O` (stereo not drawn), the IC50 result is listed as “Not Active”.
Turning to `O=C1CNCN1`, the IC50 entry is on record as “Not Active”.
As to `NC1CS(=O)(=O)NC1=O` (stereo not drawn), the IC50 entry is given as “Not Active”.
